Experimental findings from patent publication US5157020A, “Synthetic senescent cell antigen” (Research Corporation Tech., Inc., priority 1990, dated 1992) are described below.

For the assay, the target named is T1, band 3 (Homo sapiens, UniProt P02730).
T1 construct: endogenous in cells; host or cells: stored red blood cells (middle-aged cells stored in Alsever's for 5 wks at 4 C)
T1 sequence (P02730 1-911): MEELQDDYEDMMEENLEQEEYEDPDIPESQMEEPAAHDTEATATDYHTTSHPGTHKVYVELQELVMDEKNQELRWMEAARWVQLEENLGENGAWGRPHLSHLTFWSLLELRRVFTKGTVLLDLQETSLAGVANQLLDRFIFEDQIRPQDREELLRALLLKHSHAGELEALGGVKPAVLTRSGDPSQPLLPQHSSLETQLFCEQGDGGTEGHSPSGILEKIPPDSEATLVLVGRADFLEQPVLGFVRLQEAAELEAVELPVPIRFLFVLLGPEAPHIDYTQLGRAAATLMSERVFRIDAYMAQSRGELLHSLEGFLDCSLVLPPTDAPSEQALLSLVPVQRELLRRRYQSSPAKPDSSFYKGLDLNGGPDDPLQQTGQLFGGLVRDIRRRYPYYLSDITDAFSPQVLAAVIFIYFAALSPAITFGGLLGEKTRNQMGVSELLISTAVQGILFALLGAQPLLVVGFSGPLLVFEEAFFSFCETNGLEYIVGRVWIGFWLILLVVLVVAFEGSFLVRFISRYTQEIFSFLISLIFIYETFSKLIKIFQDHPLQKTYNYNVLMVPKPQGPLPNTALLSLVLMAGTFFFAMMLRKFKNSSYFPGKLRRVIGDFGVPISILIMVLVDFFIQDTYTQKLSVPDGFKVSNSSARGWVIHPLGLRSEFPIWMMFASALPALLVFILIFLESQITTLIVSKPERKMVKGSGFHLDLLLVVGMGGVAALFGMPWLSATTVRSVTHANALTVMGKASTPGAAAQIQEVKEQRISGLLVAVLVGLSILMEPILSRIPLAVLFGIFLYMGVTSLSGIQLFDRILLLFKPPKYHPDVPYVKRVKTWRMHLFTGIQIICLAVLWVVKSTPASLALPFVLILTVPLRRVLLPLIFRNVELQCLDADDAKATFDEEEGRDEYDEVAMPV
Kind of assay: DIDS treatment of stored cells prior to incubation with senescent cell IgG. Type of assay: cell-based. Particulars: stored cells incubated with 25 uM DIDS for 90 min at room temperature before senescent cell IgG. As to the method:
Since DNP and DIDS modification of ANION 1 and COOH abolished inhibition of senescent cell IgG binding, we reasoned that DIDS binding to band 3 lysines in whole cells should interfere with senescent cell IgG binding. Stored cells were incubated with 25 uM DIDS for 90 min at room temperature prior to incubation with senescent cell IgG. […] Another possibility is that DIDS binding perturbs the configuration of the molecule so that the binding site is altered. However, since our studies indicate that the actual antigenic determinants reside on ANION 1 and COOH (Example 1), it is unlikely that a distant perturbation of the antigenic site by DIDS binding is responsible. It is more likely that a DIDS reactive lysine lies in or near enough to the antigenic site to cause steric hindrance.

With `O=S(=O)(O)c1cc(N=C=S)ccc1CCc1ccc(N=C=S)cc1S(=O)(=O)O` [DIDS, diisothiocyano dihydrostilbene disulphonate], the “inhibition of senescent cell IgG binding” value is 54±3%.
